In test [1] the test system is Peripheral Blood Mononuclear Cells + Endothelial Cells. Description: BioMAP SAg system (PBMC + endothelial cells, TCR), cell-based ELISA. Also on record: species or system human. The settings on record: for CD69 level / E-selectin level / IL-8 level: protein level drug-treated versus buffer control, 24 h. As for the experimental part:
(§1) Human umbilical vein endothelial cells (HUVEC) were cultured according to standard methods, and plated into microtiter plates. Peripheral blood mononuclear cells (PBMC) were prepared from buffy coats from normal human donors according to standard methods. Experiments were performed by culturing HUVEC in microtiter plates in the presence of cytokines (IL-1b, 1 ng/ml; TNF-a, 5 ng/ml; and IFN-g, 100 ng/ml, or IL-4, 5 ng/ml and histamine, […]), activators (SAg, 20 ng/ml or LPS, 0.2 ng/ml), and/or PBMC (7.5×10^4 cells/well) for 24 h. Compounds were tested at the indicated concentrations. Compounds were prepared in the solvent as directed, added 1 hr before stimulation of the cells, and were present during the whole 24 hr stimulation period.
(§2) The levels of readout parameters (proteins) were measured by cell-based ELISA. Briefly, microtiter plates are treated, blocked, and then incubated with primary antibodies or isotype control antibodies (0.01-0.5 mg/ml) for 1 hr. After washing, plates were incubated with a peroxidase-conjugated anti-mouse IgG secondary antibody or a biotin-conjugated anti-mouse IgG antibody for 1 hr followed by streptavidin-HRP for 30 min. Plates were washed and developed with TMB substrate and the absorbance (OD) was read at 450 nm (subtracting the background absorbance at 650 nm). Other readout parameters include: total protein levels (SRB assay), measuring the viability of peripheral blood mononuclear cells (incorporation of propidium iodide); and microscopic visualization. SRB was performed by staining cells with 0.1% sulforhodamine B after fixation with 10% TCA, and reading wells at 560 nm. PBMC viability was assessed by adding propidium iodide (10 mg/ml) to PBMC that had been cultured for 24 hours in the presence of activators and measuring the percentage of cells that incorporated dye by flow cytometry after 10 minutes.
(§3) For data analysis, mean OD values (or other measurements) for each parameter were calculated from triplicate samples per experiment. The mean value obtained for each parameter in a treated sample was then divided by the mean value from an appropriate control to generate a ratio. All ratios were then log 10 transformed. An average or “trusted” profile was created by averaging 2 repeats of the experiment for each compound and concentration combination. 99% prediction envelopes (grey shading in Figures) were calculated for historical controls.

Test [2] has as its system Primary Human Endothelial Cells (HUVEC). As to the kind of experiment: BioMAP 4H system (endothelial cells + IL-4 + histamine), cell-based ELISA. The conditions noted are these: protein level drug-treated versus buffer control, 24 h. As for the experimental part:
as §1, §2, §3
A general note: An ELISA detects its analyte on a solid surface through an enzyme-linked reagent.

Test [3] shares this test system. As to the kind of experiment: BioMAP 3C system (endothelial cells + IL-1β + TNF-α + IFN-γ), cell-based ELISA. The settings on record: for uPAR level: protein level drug-treated versus buffer control, 24 h. As for the experimental part: Human umbilical vein endothelial cells (HUVEC) were cultured according to standard methods, and plated into microtiter plates. Peripheral blood mononuclear cells (PBMC) were prepared from buffy coats from normal human donors according to standard methods. Experiments were performed by culturing HUVEC in microtiter plates in the presence of cytokines (IL-1b, 1 ng/ml; TNF-a, 5 ng/ml; and IFN-g, 100 ng/ml, or IL-4, 5 ng/ml and histamine, […]), activators (SAg, 20 ng/ml or LPS, 0.2 ng/ml), and/or PBMC (7.5×10^4 cells/well) for 24 h. Compounds were tested at the indicated concentrations. Compounds were prepared in the solvent as directed, added 1 hr before stimulation of the cells, and were present during the whole 24 hr stimulation period. The levels of readout parameters (proteins) were measured by cell-based ELISA. Briefly, microtiter plates are treated, blocked, and then incubated with primary antibodies or isotype control antibodies (0.01-0.5 mg/ml) for 1 hr. After washing, plates were incubated with a peroxidase-conjugated anti-mouse IgG secondary antibody or a biotin-conjugated anti-mouse IgG antibody for 1 hr followed by streptavidin-HRP for 30 min. Plates were washed and developed with TMB substrate and the absorbance (OD) was read at 450 nm (subtracting the background absorbance at 650 nm). Other readout parameters include: total protein levels (SRB assay), measuring the viability of peripheral blood mononuclear cells (incorporation of propidium iodide); and microscopic visualization. SRB was performed by staining cells with 0.1% sulforhodamine B after fixation with 10% TCA, and reading wells at 560 nm. PBMC viability was assessed by adding propidium iodide (10 mg/ml) to PBMC that had been cultured for 24 hours in the presence of activators and measuring the percentage of cells that incorporated dye by flow cytometry after 10 minutes. For data analysis, mean OD values (or other measurements) for each parameter were calculated from triplicate samples per experiment. […] 99% prediction envelopes (grey shading in Figures) were calculated for historical controls.

Test [4] relates to HUVEC and HUVEC + PBMC systems. As to the kind of experiment: 4 system BioMAP activity profile (3C, 4H, LPS, SAg). In kind it is cell-based, human. The conditions noted are these: data not shown. As for the experimental part: as §1, §2
For data analysis, mean OD values (or other measurements) for each parameter were calculated from triplicate samples per experiment. […] 99% prediction envelopes (grey shading in Figures) were calculated for historical controls.

Test [5] relates to Peripheral Blood Mononuclear Cells + Endothelial Cells. Description: BioMAP LPS system (PBMC + endothelial cells, TLR4), cell-based ELISA. Further details: species or system human. As for the experimental part: Human umbilical vein endothelial cells (HUVEC) were cultured according to standard methods, and plated into microtiter plates. Peripheral blood mononuclear cells (PBMC) were prepared from buffy coats from normal human donors according to standard methods. Experiments were performed by culturing HUVEC in microtiter plates in the presence of cytokines (IL-1b, 1 ng/ml; TNF-a, 5 ng/ml; and IFN-g, 100 ng/ml, or IL-4, 5 ng/ml and histamine, […]), activators (SAg, 20 ng/ml or LPS, 0.2 ng/ml), and/or PBMC (7.5×10^4 cells/well) for 24 h. Compounds were tested at the indicated concentrations. Compounds were prepared in the solvent as directed, added 1 hr before stimulation of the cells, and were present during the whole 24 hr stimulation period. The levels of readout parameters (proteins) were measured by cell-based ELISA. Briefly, microtiter plates are treated, blocked, and then incubated with primary antibodies or isotype control antibodies (0.01-0.5 mg/ml) for 1 hr. After washing, plates were incubated with a peroxidase-conjugated anti-mouse IgG secondary antibody or a biotin-conjugated anti-mouse IgG antibody for 1 hr followed by streptavidin-HRP for 30 min. Plates were washed and developed with TMB substrate and the absorbance (OD) was read at 450 nm (subtracting the background absorbance at 650 nm). Other readout parameters include: total protein levels (SRB assay), measuring the viability of peripheral blood mononuclear cells (incorporation of propidium iodide); and microscopic visualization. SRB was performed by staining cells with 0.1% sulforhodamine B after fixation with 10% TCA, and reading wells at 560 nm. PBMC viability was assessed by adding propidium iodide (10 mg/ml) to PBMC that had been cultured for 24 hours in the presence of activators and measuring the percentage of cells that incorporated dye by flow cytometry after 10 minutes. For data analysis, mean OD values (or other measurements) for each parameter were calculated from triplicate samples per experiment. The mean value obtained for each parameter in a treated sample was then divided by the mean value from an appropriate control to generate a ratio. All ratios were then log 10 transformed. An average or “trusted” profile was created by averaging 2 repeats of the experiment for each compound and concentration combination. 99% prediction envelopes (grey shading in Figures) were calculated for historical controls.

A further test has as its system Macrophages + HUVEC. Description: BioMAP Mphg system (macrophages + endothelial cells + Zymosan). In kind it is cell-based, human. The procedure:
Macrophages, are generated from human peripheral blood mononuclear cells. Human peripheral blood mononuclear cells are isolated from blood by Ficoll-hypaque density gradient centrifugation as described (Ponath, JEM 183:2437, 1996). Monocytes are then isolated by negative selection using the Monocyte Isolation Kit II (Miltenyi Biotec, Germany) MACS beads according to the manufacturer's instructions. Alternatively, 10×10^6 peripheral blood mononuclear cells/ml are cultured in RPMI containing 10% fetal bovine serum for 3 hours and non-adherent lymphocytes are removed by gentle washing. The following are then applied for 7 to 8 days: MCSF (50 ng/ml) alone, or MCSF+one of the following cytokines, IL-4 (20 ng/ml), IL-6 (20 ng/ml), IFN-gamma (10 ng/ml), or GM-CSF (10 ng/ml)+IL-4 (20 ng/ml). To generate foam cells, the culture media is replaced with media containing 40% autologous serum or 40% Human AB Serum male (Cambrex Bioproducts) in RPMI+MCSF 50 ng/ml for an additional 4 to 5 days. Cells are harvested and resuspended to 10^6 cells/ml and added to confluent endothelial cells. Primary human umbilical vein endothelial cells (HUVEC) are used. Other cells that may replace HUVEC in the screen include primary microvascular endothelial cells, aortic or arteriolar endothelial cells. 7.5×10^4 cells/ml are cultured to confluence in EGM-2 (Clonetics). […]

The test system of test [6] is Primary human umbilical artery smooth muscle cells (UASMC). Description: BioMAP SM3C system (smooth muscle cells + IL-1 + TNF-a + IFNg). In kind it is cell-based. The procedure: Primary human umbilical artery smooth muscle cells (UASMC) are used. Other cells that may replace UASMC in the screen include primary aortic, bronchial, coronary artery or pulmonary artery smooth muscle cells. Other muscle cells of interest include skeletal muscle cells and cardiomyocytes. Passage 5-7 cells are used for the screen. 4×10^4 cells/ml are cultured to 100% confluence on CellBind plates (Costar) in SmGM-2 (Clonetics) containing 5% FBS. In some cases, SmGM-2 may be removed 24 hours before screen, and replaced with serum-free SmBM basal media (Clonetics) supplemented with insulin. The following are then applied for 24 hours: Factors include a combination of IL-4 (5 ng/ml), and histamine (HIS) (10 μM) or a combination of IL-1 (1 ng/ml), TNF-a (5 ng/ml) and IFNg (20 ng/ml) (SM3C) and/or thrombin (10 units/ml) for 6 and/or 24 hours. Standard concentrations of agents are employed as described in the literature. Other factors of interest include: IL-6, LPS, endothelin-1 and angiotensin II. Based on the parameters altered by the indicated factors, BioMAPs are generated for the parameters VCAM, HLA-DR, IL-8, MCP-1, Thrombomodulin, tissue factor, LDL-receptor and uPAR. […]

For test [7], the system named is heart transplant patients. The conditions noted are these: cited from earlier work.
[8] abbreviates: protein level drug-treated versus buffer control, 24 h.

The structures appear in SMILES notation.

As for `S=C([S-])OC1CC2CC1C1CCCC21.[K+]` (stereo not drawn) [D609], in test [1], the CD69 level entry is “downregulation”, the E-selectin level entry was “upregulation” and the IL-8 level entry is “upregulation”.

With `CCCCCCCCCCCCCCCCCCOCC(COP(=O)([O-])OCC[N+](C)(C)C)OC` (stereo not drawn) [ET-18-OCH3], in test [1], the CD69 level entry is recorded as “downregulation”, the E-selectin level entry is given as “upregulation” and the IL-8 level entry is “upregulation”.

As to `CC(C)c1c(C(=O)Nc2ccccc2)c(-c2ccccc2)c(-c2ccc(F)cc2)n1CC[C@@H](O)C[C@@H](O)CC(=O)O` [atorvastatin], in test [2], the Eotaxin-3 level entry is on record as “increases” and the MCP-1 level entry is “significant decreases”. For the same compound, in test [3], the uPAR level result was “significant decreases”. For the same compound, the “BioMAP profile compared with the lovastatin profile” value in test [4] is recorded as “induce the same BioMAP profile”.

In the case of `COCc1c(C(C)C)nc(C(C)C)c(/C=C/[C@@H](O)C[C@@H](O)CC(=O)O)c1-c1ccc(F)cc1` [cerevistatin], the “BioMAP profile compared with the lovastatin profile” value in test [4] is given as “induce the same BioMAP profile”.

Take `CC[C@H](C)C(=O)O[C@H]1C[C@@H](C)C=C2C=C[C@H](C)[C@H](CC[C@@H]3C[C@@H](O)CC(=O)O3)[C@H]21` [lovastatin]: in test [2], the Eotaxin-3 level result is on record as “increases” and the MCP-1 level entry was “significant decreases”. In addition, the uPAR level entry in test [3] was “significant decreases”. In addition, in test [5] (setting [8]), the IL-1alpha level entry is given as “significant decreases”, the M-CSF level entry was “increases” and the tissue factor level entry is “increases”.

Regarding `CC[C@H](C)C(=O)O[C@H]1CCC=C2C=C[C@H](C)[C@H](CC[C@@H]3C[C@@H](O)CC(=O)O3)[C@H]21` [mevastatin], the “BioMAP profile compared with the lovastatin profile” value in test [4] was “induce the same BioMAP profile”.

For `COc1c(C)c2c(c(O)c1C/C=C(\C)CCC(=O)O)C(=O)OC2` [mycophenolic acid], the MCP-1 level entry (with Macrophages + HUVEC; in test [1]; in test [3]; in test [6]; in test [5]) was “inhibition” each time. The “long-term benefit against post-transplant vasculopathy” value in test [7] was “protecting against post-transplant vasculopathy”.

The values are drawn from patent publication US9734282B2, “Biological dataset profiling of cardiovascular disease and cardiovascular inflammation” (DISCOVERX CORPORATION, priority 2005, dated 2017).
